The results in this text go back to patent US8815833B2, “Stable amifostine liquid concentrate” (Seidose, LLC, priority 2006, dated 2014).

Values after ≈ are worked out from the molar mass of the structure shown.

A short description of this data set: physchem. As to conditions: for crystallization of solution: 200 mg/ml solution. The class given is physicochemical. The method, then: Amifostine is a phospho ester compound that is used pharmacologically for the amelioration of side effects of radiation and chemotherapy. The compound is currently marketed as a lyophilizate of a crystalline trihydrate of amifostine, typically in vials of 500 mg, which is reconstituted to a final administration concentration of 5 to 40 mg/ml for IV infusion. […] Amifostine is known to undergo hydrolysis in aqueous solution at acidic, neutral, and mild basic conditions. Thus, it was believed that stable aqueous formulations that would not hydrolyze to any appreciable extent over typical storage time periods were not likely to be found. […] Thus, aqueous liquid concentrates of amifostine were simply thought not possible. Because such an aqueous liquid amifostine concentrate would eliminate a potential source of dosing errors in clinical practice, there is clearly a need for the same.
At pH 9.0, 50% of the amifostine is present as the double zwitterion and 50% of amine 1 (primary amine) is present as the free base form making 50% of the amifostine have a net negative charge. At pH 10.0, only 10% of amifostine is present as a double zwitterion and the other 90% has a net negative charge; amine 1 is mainly in the free base form. […] Approximately 1% is present as the double zwitterion. More importantly, 17% of amifostine has both amines in the un-ionized form as free bases and this particular ionic species of the molecule carries about −2 charge. At this pH (11), it is observed that there is a significant improvement in the stability. […] At pH 13, over 95% of the amifostine is present with both amines in their free base forms with improved stability.

In general, solubility refers to the dissolved amount per volume that the medium holds.

Regarding `NCCCNCCSP(=O)(O)O` [amifostine, S-2(3-Aminoprpropylamino)ethylphosphorthioic acid], the crystallization of solution entry runs as follows: (below pH 10, refrigeration conditions) “crystallizes out”; (pH 10.0, refrigeration conditions) “remained clear with no crystallization observed”. For the setting “5 °C, pH 10, water”, the solubility is about 100 mg/mL (≈ 467 mM).
